Measurements taken from patent US20230045421A1 (priority 2018, published 2023).

System: HBV rcDNA
Experiment: HepDE19 assay with bDNA quantitation of HBV rcDNA
Type: cell-based, hepatitis B virus
Conditions: HepDE19 assay, inhibition of formation of rcDNA; read-out: DE-19bDNA EC50
Procedure: HepDE19 Assay with bDNA Quantitation of HBV rcDNA:
HepDE19 cell culture system is a HepG2 (human hepatocarcinoma) derived cell line that supports HBV DNA replication and cccDNA formation in a tetracycline (Tet)-regulated manner and produces HBV rcDNA and a detectable reporter molecule dependent on the production and maintenance of cccDNA (Guo, et al., 2007, J. Virol. 81:12472-12484).
HepDE19 (50,000 cells/well) were plated in 96-well collagen-coated tissue-culture treated microtiter plates in DMEM/F12 medium supplemented with 10% fetal bovine serum, 1% penicillin-streptomycin and 1 μg/mL tetracycline and incubated in a humidified incubator at 37° C. and 5% CO2 overnight. Next day, the cells were switched to fresh medium without tetracycline and incubated for 4 hours at 37° C. and 5% CO2. The cells were treated with fresh Tet-free medium with compounds at concentrations starting at 25 μM and a serial, […], 8-point, titration series in duplicate. The final DMSO concentration in the assay was 0.5%. The plates were incubated for 7 days in a humidified incubator at 37° C. and 5% CO2. Following a 7 day-incubation, the level of rcDNA present in the inhibitor-treated wells was measured using a Quantigene 2.0 bDNA assay kit (Affymetrix, Santa Clara, Calif.) with HBV specific custom probe set and manufacturers instructions. Concurrently, the effect of compounds on cell viability was assessed using replicate plates, plated at a density of 5,000 cells/well and incubated for 4 days, to determine the ATP content as a measure of cell viability using the cell-titer glo reagent (CTG; Promega Corporation, Madison, Wis.) as per manufacturer's instructions. The plates were read using a Victor luminescence plate reader (PerkinElmer Model 1420 Multilabel counter) and the relative luminescence units (RLU) data generated from each well was calculated as % inhibition of the untreated control wells and analyzed using XL-Fit module in Microsoft Excel to determine EC50 and EC90 (bDNA) and CC50 (CTG) values using a 4-parameter curve fitting algorithm.

Q: With `CCN(C(=O)Nc1ccc(F)c(Cl)c1)C(C)c1cnc(OC)c2ccccc12` (single isomer, unassigned) [Compound 23, 3-(3-Chloro-4-fluorophenyl)-1-ethyl-1-(1-(1-methoxyisoquinolin-4-yl)ethyl)urea] as the molecule, how does the EC50 read?
A: 0.27 µM

Q: How did the EC50 turn out when `CCOCCN(C(=O)Nc1ccc(F)c(Cl)c1)C(C)c1cnc(OC)c2ccccc12` (single isomer, unassigned) [Compound 126, 3-(3-Chloro-4-fluorophenyl)-1-(2-ethoxyethyl)-1-(1-(1-methoxyisoquinolin-4-yl)ethyl)urea] was run?
A: 0.63 µM

Q: `CC(c1cnc(N(C)C)c2ccccc12)N(C)C(=O)Nc1ccc(F)c(Cl)c1` (single isomer, unassigned) [Compound 234, 3-(3-Chloro-4-fluorophenyl)-1-(1-(1-(dimethylamino)isoquinolin-4-yl)ethyl)-1-methylurea] was tested. Which EC50 did it give?
A: 0.65 µM

Q: Which EC50 does the source give for `CC(c1c[nH]c(=O)c2ccccc12)N(CCS(C)(=O)=O)C(=O)Nc1ccc(F)c(Cl)c1` (single isomer, unassigned) [Compound 107, 3-(3-Chloro-4-fluorophenyl)-1-(2-(methylsulfonyl)ethyl)-1-(1-(1-oxo-1,2-dihydroisoquinolin-4-yl)ethyl)urea] here?
A: 17 µM

Q: `CC(c1cn(Cc2nc[nH]n2)c(=O)c2ccccc12)N(C)C(=O)Nc1ccc(F)c(Cl)c1` (single isomer, unassigned) [Compound 269, 1-(1-(2-((1H-1,2,4-Triazol-3-yl)methyl)-1-oxo-1,2-dihydroisoquinolin-4-yl)ethyl)-3-(3-chloro-4-fluorophenyl)-1-methylurea] was tested. Which EC50 did it give?
A: 0.56 µM

Q: With `CC(c1cnc(OCc2nc[nH]n2)c2ccccc12)N(CCCO)C(=O)Nc1ccc(F)c(Cl)c1` (single isomer, unassigned) [Compound 259, 1-(1-(1-((1H-1,2,4-Triazol-3-yl)methoxy)isoquinolin-4-yl)ethyl)-3-(3-chloro-4-fluorophenyl)-1-(3-hydroxypropyl)urea] as the molecule, how does the EC50 read?
A: 2.1 µM

Q: For `CCNc1ncc(C(C)N(C)C(=O)Nc2ccc(F)c(Cl)c2)c2ccccc12` (single isomer, unassigned) [Compound 241, 3-(3-Chloro-4-fluorophenyl)-1-(1-(1-(ethylamino)isoquinolin-4-yl)ethyl)-1-methylurea], which EC50 is on record?
A: 0.11 µM

Q: Which EC50 does the source give for `CC(c1cn(C(C)C)c(=O)c2ccccc12)N(C)C(=O)Nc1ccc(F)c(Cl)c1` (single isomer, unassigned) [Compound 187, 3-(3-Chloro-4-fluorophenyl)-1-(1-(2-isopropyl-1-oxo-1,2-dihydroisoquinolin-4-yl)ethyl)-1-methylurea] here?
A: 0.14 µM

Q: `CC(c1cnc(OCc2ncn(C)n2)c2ccccc12)N(CCCO)C(=O)Nc1ccc(F)c(Cl)c1` (single isomer, unassigned) [Compound 256, 3-(3-Chloro-4-fluorophenyl)-1-(3-hydroxypropyl)-1-(1-(1-((1-methyl-1H-1,2,4-triazol-3-yl)methoxy)isoquinolin-4-yl)ethyl)urea] was tested. Which EC50 did it give?
A: 0.013 µM

Same assay, conditions: HepDE19 assay, inhibition of formation of relaxed circular DNA (rcDNA), bDNA quantitation; read-out: DE-19bDNA EC50

Q: For `CC(c1c[nH]c(=O)c2c(F)c(F)ccc12)N(C)C(=O)Nc1ccc(F)c(Cl)c1` (single isomer, unassigned) [Compound 330, 3-(3-Chloro-4-fluorophenyl)-1-(1-(7,8-difluoro-1-oxo-1,2-dihydroisoquinolin-4-yl)ethyl)-1-methylurea], which EC50 is on record?
A: 0.99 µM

Q: `CC(c1c[nH]c(=O)c2cc(F)c(F)cc12)N(C)C(=O)Nc1ccc(F)c(C#N)c1` (single isomer, unassigned) [Compound 429, 3-(3-Cyano-4-fluorophenyl)-1-(1-(6,7-difluoro-1-oxo-1,2-dihydroisoquinolin-4-yl)ethyl)-1-methylurea] was tested. Which EC50 did it give?
A: 0.01 µM

Q: How did the EC50 turn out when `CC(c1c[nH]c(=O)c2c(F)cc(F)cc12)N(C)C(=O)Nc1ccc(F)c(Cl)c1` (single isomer, unassigned) [Compound 368, 3-(3-Chloro-4-fluorophenyl)-1-(1-(6,8-difluoro-1-oxo-1,2-dihydroisoquinolin-4-yl)ethyl)-1-methylurea] was run?
A: 2.5 µM

Q: With `CC(c1c[nH]c(=O)c2c(F)c(F)ccc12)N(C)C(=O)Nc1ccc(F)cc1` (single isomer, unassigned) [Compound 432, 1-(1-(7,8-Difluoro-1-oxo-1,2-dihydroisoquinolin-4-yl)ethyl)-3-(4-fluorophenyl)-1-methylurea] as the molecule, how does the EC50 read?
A: 11.2 µM

Q: With `CC(C)CN(C(=O)Nc1ccc(F)cc1)C(C)c1c[nH]c(=O)c2c(F)cc(F)cc12` (single isomer, unassigned) [Compound 376, 1-(1-(6,8-Difluoro-1-oxo-1,2-dihydroisoquinolin-4-yl)ethyl)-3-(4-fluorophenyl)-1-isobutylurea] as the molecule, how does the EC50 read?
A: 0.007 µM

Q: `CC(c1c[nH]c(=O)c2ccccc12)N(Cc1nccs1)C(=O)Nc1ccc(F)c(Cl)c1` (single isomer, unassigned) [Compound 311, 3-(3-Chloro-4-fluorophenyl)-1-(1-(1-oxo-1,2-dihydroisoquinolin-4-yl)ethyl)-1-(thiazol-2-ylmethyl)urea] was tested. Which EC50 did it give?
A: 0.066 µM

Q: For `CC(c1c[nH]c(=O)c2c(F)c(F)ccc12)N(C)C(=O)NCc1ccc(F)c(F)c1` (single isomer, unassigned) [Compound 490, 1-(1-(7,8-Difluoro-1-oxo-1,2-dihydroisoquinolin-4-yl)ethyl)-3-(3,4-difluorobenzyl)-1-methylurea], which EC50 is on record?
A: 0.78 µM

Same assay, conditions: Hepatitis B virus, HepDE19, HepDE19 assay, inhibition of formation of rcDNA; read-out: DE-19bDNA EC50

Q: `C[C@H](c1c[nH]c(=O)c2ccccc12)N(C)C(=O)Nc1ccc(F)c(C(F)(F)F)c1` [Compound 89, (R)-3-(4-Fluoro-3-(trifluoromethyl)phenyl)-1-methyl-1-(1-(1-oxo-1,2-dihydroisoquinolin-4-yl)ethyl)urea] was tested. Which EC50 did it give?
A: 0.32 µM

Q: How did the EC50 turn out when `CNC(=O)CN(C(=O)Nc1ccc(F)c(Cl)c1)C(C)c1c[nH]c(=O)c2ccccc12` (single isomer, unassigned) [Compound 129, 2-(3-(3-Chloro-4-fluorophenyl)-1-(1-(1-oxo-1,2-dihydroisoquinolin-4-yl)ethyl)ureido)-N-methylacetamide] was run?
A: 0.53 µM

Q: `CC(c1c[nH]c(=O)c2cc(F)ccc12)N(C)C(=O)Nc1ccc(F)cc1` (racemic) [Compound 258, 3-(4-Fluorophenyl)-1-(1-(7-fluoro-1-oxo-1,2-dihydroisoquinolin-4-yl)ethyl)-1-methylurea] was tested. Which EC50 did it give?
A: 0.15 µM

Q: How did the EC50 turn out when `Cc1cc(NC(=O)N(C)C(C)c2c(C)[nH]c(=O)c3ccccc23)ccc1F` (racemic) [Compound 230, 3-(4-Fluoro-3-methylphenyl)-1-methyl-1-(1-(3-methyl-1-oxo-1,2-dihydroisoquinolin-4-yl)ethyl)urea] was run?
A: 0.12 µM

Same assay, conditions: Hepatitis B virus, HepDE19, read-out: DE-19bDNA EC50 (μM), HepDE19 assay, inhibition of formation of relaxed circular DNA (rcDNA), bDNA quantitation

Q: How did the EC50 turn out when `C[C@H](c1c[nH]c(=O)c2ccccc12)N(C)C(=O)Nc1ccc(Br)cc1` [Compound 294, (R)-3-(4-Bromophenyl)-1-methyl-1-(1-(1-oxo-1,2-dihydroisoquinolin-4-yl)ethyl)urea] was run?
A: 0.87 µM

Q: With `CC(c1c[nH]c(=O)c2c(F)c(F)ccc12)N(C)C(=O)Nc1ccccc1F` (single isomer, unassigned) [Compound 457, 1-(1-(7,8-Difluoro-1-oxo-1,2-dihydroisoquinolin-4-yl)ethyl)-3-(2-fluorophenyl)-1-methylurea] as the molecule, how does the EC50 read?
A: 0.74 µM

Same assay, conditions: read-out: DE-19bDNA EC50; HepDE19 assay, inhibition of formation of relaxed circular DNA (rcDNA), bDNA quantitation

Q: How did the EC50 turn out when `CC(c1c[nH]c(=O)c2cc(F)c(F)cc12)N(C)C(=O)Nc1cccc(F)c1` (single isomer, unassigned) [Compound 410, 1-(1-(6,7-Difluoro-1-oxo-1,2-dihydroisoquinolin-4-yl)ethyl)-3-(3-fluorophenyl)-1-methylurea] was run?
A: 2.8 µM
